Experiment [1] deals with T1, human glucocorticoid receptor (GR) complex (Homo sapiens, UniProt P04150).
T1 construct: made in house; host or cells: insect expression system (baculovirus lysate)
T1 sequence (P04150 1-777): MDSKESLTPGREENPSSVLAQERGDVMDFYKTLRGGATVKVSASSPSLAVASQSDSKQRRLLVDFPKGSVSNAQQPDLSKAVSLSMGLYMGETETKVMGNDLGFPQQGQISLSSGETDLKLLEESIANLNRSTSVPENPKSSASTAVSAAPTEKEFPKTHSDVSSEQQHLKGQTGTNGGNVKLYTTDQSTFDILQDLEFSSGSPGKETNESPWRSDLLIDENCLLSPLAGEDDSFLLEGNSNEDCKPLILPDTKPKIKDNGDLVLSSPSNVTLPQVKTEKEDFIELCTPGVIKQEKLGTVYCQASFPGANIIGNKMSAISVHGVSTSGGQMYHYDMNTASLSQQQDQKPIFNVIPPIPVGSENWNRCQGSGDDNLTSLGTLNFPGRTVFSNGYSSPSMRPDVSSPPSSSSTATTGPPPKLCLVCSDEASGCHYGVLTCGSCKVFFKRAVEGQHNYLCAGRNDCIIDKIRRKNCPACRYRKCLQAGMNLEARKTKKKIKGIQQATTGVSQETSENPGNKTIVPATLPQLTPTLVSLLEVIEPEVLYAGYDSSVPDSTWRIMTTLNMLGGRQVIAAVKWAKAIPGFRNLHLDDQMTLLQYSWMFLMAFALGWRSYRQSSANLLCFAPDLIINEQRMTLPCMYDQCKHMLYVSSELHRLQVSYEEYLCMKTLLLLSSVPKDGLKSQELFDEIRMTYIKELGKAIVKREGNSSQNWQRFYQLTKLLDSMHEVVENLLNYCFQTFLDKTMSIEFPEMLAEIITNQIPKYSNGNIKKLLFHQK
Description: Glucocorticoid receptor competitive binding assay (fluorescence polarization, TAMRA-labeled dexamethasone probe). Particulars: compounds of Formula (IA). The method in brief: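 Fluorescence-polarization competition against 15 nM TAMRA-dexamethasone (stock added to the mix) for human GR complex from baculovirus lysate diluted 1:170. Buffer: 10 mM TES, 50 mM KCl, 20 mM Na2MoO4, 1.5 mM EDTA, 0.04% CHAPS, 10% glycerol, 1 mM DTT, pH 7.4. IC50 from 4-parameter logistic fit.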

Experiment [2] concerns Human osteosarcoma MG-63 cells. Nature of the experiment: Inhibition of osteocalcin production from osteoblast cell line MG-63. Format: cell-based. To be noted: Vitamin D 10 nM, 48 hours. How it is done: 7. Inhibition of Osteocalcin Production from Osteoblast Cell Line MG-63
The next day, wells are replaced with fresh media. Cells are treated with Vitamin D (Sigma, Cat. No. D1530) to a final concentration of 10 nM, and with the test compounds in concentrations of 10^−6 M to 10^−9 M, in a total volume of 200 μL per well. Samples are done in duplicates. […] Positive control wells receive Vitamin D only, without compounds, and represent maximum (100%) amount of osteocalcin production. Plates are incubated at 37° C. incubator for 48 hours and supernatants are harvested at the end of incubation. Amounts of osteocalcin in the supernatants are determined by the Glype osteocalcin ELISA kit (Zymed, Cat. No. 99-0054) according to manufacture's protocol. Inhibition of osteocalcin by test compounds is expressed in percentage relative to positive controls. IC50 values of the test compounds are derived by non-lineal curve fitting.

Experiment [3] relates to glucocorticoid receptor function. Description: one or more of the above assays (GR binding and glucocorticoid receptor cell assays: aromatase, IL-6, TAT, MMTV-Luc, IL-8, ICAM-Luc). The format is cell-based. Particulars: assay not specified per compound.

We go through 8 compounds from patent US8741897B2, “Glucocorticoid mimetics, methods of making them, pharmaceutical compositions and uses thereof” (Boehringer Ingelheim Pharmaceuticals Inc., priority 2003, dated 2014).

Take `Cc1ccc(F)cc1C(C)(C)CC(O)(Cc1cc2cnncc2[nH]1)C(F)(F)F` (stereo not drawn) [1,1,1-Trifluoro-4-(5-fluoro-2-methylphenyl)-4-methyl-2-(1H-pyrrolo[2,3-d]pyridazin-2-ylmethyl)pentan-2-ol]: in experiment [1], the “activity in the GR binding assay” value is listed as “potent activity”. For the same compound, the “inhibit the vitamin D stimulated production of osteocalcin” value in experiment [2] is given as “inhibit”. Also, the “activity as agonists of the glucocorticoid receptor function in one or more of the above assays” value (“activity as agonists” below) in experiment [3] is recorded as “potent agonists”.

As for `COc1cc2cc(CC(O)(CC(C)(C)c3cc(Cl)cc4c3OCC4)C(F)(F)F)[nH]c2cn1` (stereo not drawn) [4-(5-Chloro-2,3-dihydrobenzofuran-7-yl)-1,1,1-trifluoro-2-(5-methoxy-1H-pyrrolo[2,3-c]pyridin-2-ylmethyl)-4-methylpentan-2-ol], the “activity in the GR binding assay” value in experiment [1] is listed as “potent activity”. Further, the “inhibit the vitamin D stimulated production of osteocalcin” value in experiment [2] is “inhibit”. The “activity as agonists” value in experiment [3] is “potent agonists”.

For `Cc1cc2[nH]c(CC(O)(CC(C)(C)c3cc(Cl)cc4c3OCC4)C(F)(F)F)cc2c(C)n1` (stereo not drawn) [4-(5-Chloro-2,3-dihydrobenzofuran-7-yl)-2-(4,6-dimethyl-1H-pyrrolo[3,2-c]pyridin-2-ylmethyl)-1,1,1-trifluoro-4-methylpentan-2-ol], in experiment [1], the “activity in the GR binding assay” value was “potent activity”. For the same compound, the “inhibit the vitamin D stimulated production of osteocalcin” value in experiment [2] is listed as “inhibit”. Moreover, in experiment [3], the “activity as agonists” value is “potent agonists”.

For the compound `COc1ccc(F)cc1C(C)(C)CC(O)(Cc1cc2c(C)nc(C#N)cc2[nH]1)C(F)(F)F` (stereo not drawn) [2-[4-(5-Fluoro-2-methoxyphenyl)-2-hydroxy-4-methyl-2-trifluoromethylpentyl]-4-methyl-1H-pyrrolo[3,2-c]pyridine-6-carbonitrile], the “activity in the GR binding assay” value in experiment [1] is listed as “potent activity”. Further, in experiment [2], the “inhibit the vitamin D stimulated production of osteocalcin” value is given as “inhibit”. Further, in experiment [3], the “activity as agonists” value was “potent agonists”.

As to `CC(C)(CC(O)(Cc1cc2cc(C(=O)NCC#N)ccc2[nH]1)C(F)(F)F)c1cc(Br)cc2c1OCC2` (stereo not drawn) [2-[4-(5-Bromo-2,3-dihydrobenzofuran-7-yl)-2-hydroxy-4-methyl-2-trifluoromethylpentyl]-1H-indole-5-carboxylic acid cyanomethylamide], the “activity in the GR binding assay” value in experiment [1] is reported as “potent activity”. Also, the “inhibit the vitamin D stimulated production of osteocalcin” value in experiment [2] is “inhibit”. The “activity as agonists” value in experiment [3] is “potent agonists”.

As to `Cc1cc(C#N)cc2[nH]c(CC(O)(CC(C)(C)c3cc(S(C)(=O)=O)cc4c3OCC4)C(F)(F)F)cc12` (stereo not drawn) [2-[2-Hydroxy-4-(5-methanesulfonyl-2,3-dihydrobenzofuran-7-yl)-4-methyl-2-trifluoromethylpentyl]-4-methyl-1H-indole-6-carbonitrile], the “activity in the GR binding assay” value in experiment [1] was “potent activity”. The “inhibit the vitamin D stimulated production of osteocalcin” value in experiment [2] is “inhibit”. The “activity as agonists” value in experiment [3] is on record as “potent agonists”.

As for `CC(C)(CC(O)(Cc1cc2cc(C(=O)N3CCCC3)ccc2[nH]1)C(F)(F)F)c1cc(Br)cc2c1OCC2` (stereo not drawn) [{2-[4-(5-Bromo-2,3-dihydrobenzofuran-7-yl)-2-hydroxy-4-methyl-2-trifluoromethylpentyl]-1H-indol-5-yl}pyrrolidin-1-ylmethanone], in experiment [1], the “activity in the GR binding assay” value is given as “potent activity”. For the same compound, the “inhibit the vitamin D stimulated production of osteocalcin” value in experiment [2] is recorded as “inhibit”. The “activity as agonists” value in experiment [3] is on record as “potent agonists”.

For `CC(C)(CC(O)(Cc1cc2cc(C(N)=O)ccc2[nH]1)C(F)(F)F)c1cc(Br)cc2c1OCC2` (stereo not drawn) [2-[4-(5-Bromo-2,3-dihydrobenzofuran-7-yl)-2-hydroxy-4-methyl-2-trifluoromethylpentyl]-1H-indole-5-carboxylic acid amide], in experiment [1], the “activity in the GR binding assay” value is on record as “potent activity”. Further, in experiment [2], the “inhibit the vitamin D stimulated production of osteocalcin” value is “inhibit”. Moreover, the “activity as agonists” value in experiment [3] is “potent agonists”.
